The results in this text go back to patent US10421755B2, “Salts of aza-bicyclic di-aryl ethers and methods to make them or their precursors” (Novartis AG, priority 2011, dated 2019).

For one data set, the system named is mice. Put plainly: Social Recognition Test in mice. It counts as in vivo. The conditions noted are these: oral, dose 0.3 mg/kg, familiar partner at 24 h vs time 0. How it is done: Assay: Social interactions between two experimental animals are influenced by their degree of familiarity: the better they know each other, the less time they spend on mutual scrutiny at each meeting. […] Memory enhancing agents (i.e. oxiracetam) facilitate learning to the extent that the previously met (familiar) partner is still remembered after 24 h, whereas in vehicle treated control animals the memory usually fades after less than 1 hour (Thor and Holloway, 1982) or after 2-3 hours.
Baseline-test: Pairs consisting of one adult and one young mouse were assigned at random to the experimental and control groups. In each pair only the adult mouse was orally treated 1 hour before the trial with either vehicle or the test compound. The duration of active contacts of the adult mouse with the young mouse was manually recorded over a period of 3 min, including the following behavioural, approach-related items: sniffing, nosing, grooming, licking, pawing and playing, anogenital exploration and orientation toward the young mouse; orientation, thereby, was defined as tip of nose of the adult mouse less than approximately 1 cm distant from the young mouse's body. […]

A further data set in a line: Aqueous solubility. In kind it is physicochemical.
Data set [1] is described as follows: Loss on drying / initial water content. It counts as physicochemical. Also noted: Initial water content: unit not given here.

≈ marks a conversion by molar mass, not a printed value.

In general, solubility refers to the dissolved amount per volume that the medium holds. As for `Cc1ccc(-c2ccc(O[C@H]3CN4CCC3CC4)cn2)cc1` [Compound A, (R)-3-(6-(4-methylphenyl)-pyridin-3-yloxy)-1-aza-bicyclo[2.2.2]octane], in the data set with mice, the “Reduction in time scrutinizing in % ± SEM at 24 h” value is reported as 36 ± 6%. The “aqueous solubility (in words)” value in the data set “Aqueous solubility” is “low”. The same compound had a solubility in “Aqueous solubility” (aqueous medium, comparison table, Example 7) of 50 µg/mL (≈ 170 µM). In data set [1], the “Loss on drying (LOD) of a sample” value is given as 0.1%. In data set [1] (comparison table, Example 7), this compound yielded an Initial water content of 0.1.
